Each compound was assayed on 697 (assay: selective drug sensitivity score (sDSS, relative to normal bone marrow) (sDSS (score)); higher = more potent and effective on the cell line relative to normal bone marrow cells). Settings: 72 h.
In the case of `C/C=C1\NC(=O)[C@H]2CSSCC/C=C/[C@H](CC(=O)N[C@H](C(C)C)C(=O)N2)OC(=O)[C@H](C(C)C)NC1=O` [Romidepsin] (top concentration 1000 nM), the “selective drug sensitivity score” value is reported as 3.16. For `CN(C)CCOc1ccc(/C(=C(/CCCl)c2ccccc2)c2ccccc2)cc1` [Toremifene] (top concentration 10000 nM), the “selective drug sensitivity score” value was 0.28. With `CCCCc1nc2cc(/C=C/C(=O)NO)ccc2n1CCN(CC)CC` [Pracinostat] (top concentration 10000 nM) the “selective drug sensitivity score” value was 7.68. With `Cn1ncc(Cl)c1-c1cc(C(=O)N[C@H](CN)Cc2cccc(F)c2)sc1Cl` [Afuresertib] (top concentration 1000 nM) the “selective drug sensitivity score” value was 0.76. With `Cc1cc(-c2nc(-c3ccc(OC(F)(F)F)cc3)no2)nn1Cc1ccnc(N2CCN(C3CC3)CC2)c1` [BAY_87-2243] (top concentration 1000 nM) the “selective drug sensitivity score” value was 18.7. `CNc1nc(-c2ccc3c(N)n[nH]c3c2)cc(N2C[C@@H](C(=O)NC3CCCCC3)CC[C@H]2C)n1` (top concentration 10000 nM) was tested, and the “selective drug sensitivity score” value was 9.06. With `CN1CC[C@H](c2c(O)cc(O)c3c(=O)cc(-c4ccccc4Cl)oc23)[C@H](O)C1` [Alvocidib] (top concentration 10000 nM) the “selective drug sensitivity score” value was 1.3. For `Cc1cc2c(C(C)C)c(O)c(O)c(C=O)c2c(O)c1-c1c(C)cc2c(C(C)C)c(O)c(O)c(C=O)c2c1O` [AT-101] (top concentration 100000 nM), the “selective drug sensitivity score” value was 3.08. For `Cc1ccc(C(=O)Nc2cccc(C(F)(F)F)c2)cc1Nc1nc(-c2cccnc2)nc2c1cnn2C` [NVP-BHG712] (top concentration 10000 nM), the “selective drug sensitivity score” value was 3.78. For `COC[C@H](NC(=O)c1cnc(C)s1)C(=O)N[C@@H](COC)C(=O)N[C@@H](Cc1ccccc1)C(=O)[C@@]1(C)CO1` [Oprozomib] (top concentration 2500 nM), the “selective drug sensitivity score” value was 0.2. For `Cc1ccc(C(=O)N(CCCN)[C@@H](c2oc3cc(Cl)ccc3c(=O)c2Cc2ccccc2)C(C)C)cc1` (top concentration 100 nM), the “selective drug sensitivity score” value was 1.36. For `CCn1c(C(=O)N(C2CC2)C2CC2)cc2c3c(ncn3C)c(Nc3cc(C)n(C)n3)nc21` (top concentration 10000 nM), the “selective drug sensitivity score” value was -3.76. With `Nc1nc(Cl)nc2c1ncn2[C@@H]1O[C@H](CO)[C@@H](O)[C@@H]1F` [Clofarabine] (top concentration 10000 nM) the “selective drug sensitivity score” value was 9.6. For `Cc1ccc(C(=O)Nc2ccc(Oc3cc4cnn(C)c4cc3-c3cn[nH]c3)c(F)c2)c(=O)n1-c1ccc(F)cc1` [Merestinib] (top concentration 1000 nM), the “selective drug sensitivity score” value was 0.48. For `Nc1ncn([C@@H]2O[C@H](CO)[C@@H](O)[C@H]2O)c(=O)n1` [Azacitidine] (top concentration 10000 nM), the “selective drug sensitivity score” value was 10.9. In the case of `CC(C)c1cc(-c2n[nH]c(=O)n2-c2ccc3c(ccn3C)c2)c(O)cc1O` [Ganetespib] (top concentration 1000 nM), the “selective drug sensitivity score” value is reported as 1.24. In the case of `C[C@]1(c2nc3c(C(N)=O)cccc3[nH]2)CCCN1` [Veliparib] (top concentration 10000 nM), the “selective drug sensitivity score” value is reported as -1.08. `CC(=O)Nc1cccc(-n2c(=O)n(C3CC3)c(=O)c3c(Nc4ccc(I)cc4F)n(C)c(=O)c(C)c32)c1` [Trametinib] (top concentration 250 nM) was tested, and the “selective drug sensitivity score” value was -2.64.

What follows are compounds tested on CCRF-HSB2 in the same assay as above. Settings: 72 h.
`C/C=C1\NC(=O)[C@H]2CSSCC/C=C/[C@H](CC(=O)N[C@H](C(C)C)C(=O)N2)OC(=O)[C@H](C(C)C)NC1=O` [Romidepsin] (top concentration 1000 nM) was tested, and the “selective drug sensitivity score” value was 1.46. For `CN(C)CCOc1ccc(/C(=C(/CCCl)c2ccccc2)c2ccccc2)cc1` [Toremifene] (top concentration 10000 nM), the “selective drug sensitivity score” value was 1.48. In the case of `CCCCc1nc2cc(/C=C/C(=O)NO)ccc2n1CCN(CC)CC` [Pracinostat] (top concentration 10000 nM), the “selective drug sensitivity score” value is reported as 5.88. In the case of `Cn1ncc(Cl)c1-c1cc(C(=O)N[C@H](CN)Cc2cccc(F)c2)sc1Cl` [Afuresertib] (top concentration 1000 nM), the “selective drug sensitivity score” value is reported as 0.86. With `Cc1cc(-c2nc(-c3ccc(OC(F)(F)F)cc3)no2)nn1Cc1ccnc(N2CCN(C3CC3)CC2)c1` [BAY_87-2243] (top concentration 1000 nM) the “selective drug sensitivity score” value was 14.9. For `CNc1nc(-c2ccc3c(N)n[nH]c3c2)cc(N2C[C@@H](C(=O)NC3CCCCC3)CC[C@H]2C)n1` (top concentration 10000 nM), the “selective drug sensitivity score” value was -0.14. For `CN1CC[C@H](c2c(O)cc(O)c3c(=O)cc(-c4ccccc4Cl)oc23)[C@H](O)C1` [Alvocidib] (top concentration 10000 nM), the “selective drug sensitivity score” value was 2.2. For `Cc1cc2c(C(C)C)c(O)c(O)c(C=O)c2c(O)c1-c1c(C)cc2c(C(C)C)c(O)c(O)c(C=O)c2c1O` [AT-101] (top concentration 100000 nM), the “selective drug sensitivity score” value was 2.48. `Cc1ccc(C(=O)Nc2cccc(C(F)(F)F)c2)cc1Nc1nc(-c2cccnc2)nc2c1cnn2C` [NVP-BHG712] (top concentration 10000 nM) was tested, and the “selective drug sensitivity score” value was 10.3. For `COC[C@H](NC(=O)c1cnc(C)s1)C(=O)N[C@@H](COC)C(=O)N[C@@H](Cc1ccccc1)C(=O)[C@@]1(C)CO1` [Oprozomib] (top concentration 2500 nM), the “selective drug sensitivity score” value was 14.2. For `Cc1ccc(C(=O)N(CCCN)[C@@H](c2oc3cc(Cl)ccc3c(=O)c2Cc2ccccc2)C(C)C)cc1` (top concentration 100 nM), the “selective drug sensitivity score” value was 9.56. `CCn1c(C(=O)N(C2CC2)C2CC2)cc2c3c(ncn3C)c(Nc3cc(C)n(C)n3)nc21` (top concentration 10000 nM) was tested, and the “selective drug sensitivity score” value was 5.14. In the case of `Nc1nc(Cl)nc2c1ncn2[C@@H]1O[C@H](CO)[C@@H](O)[C@@H]1F` [Clofarabine] (top concentration 10000 nM), the “selective drug sensitivity score” value is reported as 6.8. In the case of `Cc1ccc(C(=O)Nc2ccc(Oc3cc4cnn(C)c4cc3-c3cn[nH]c3)c(F)c2)c(=O)n1-c1ccc(F)cc1` [Merestinib] (top concentration 1000 nM), the “selective drug sensitivity score” value is reported as -0.22. With `Nc1ncn([C@@H]2O[C@H](CO)[C@@H](O)[C@H]2O)c(=O)n1` [Azacitidine] (top concentration 10000 nM) the “selective drug sensitivity score” value was -0.56. `CC(C)c1cc(-c2n[nH]c(=O)n2-c2ccc3c(ccn3C)c2)c(O)cc1O` [Ganetespib] (top concentration 1000 nM) was tested, and the “selective drug sensitivity score” value was 4.34. In the case of `C[C@]1(c2nc3c(C(N)=O)cccc3[nH]2)CCCN1` [Veliparib] (top concentration 10000 nM), the “selective drug sensitivity score” value is reported as -2.18. `CC(=O)Nc1cccc(-n2c(=O)n(C3CC3)c(=O)c3c(Nc4ccc(I)cc4F)n(C)c(=O)c(C)c32)c1` [Trametinib] (top concentration 250 nM) was tested, and the “selective drug sensitivity score” value was -1.54.

Each compound was assayed on COG-LL-319h in the same assay as above. Settings: 72 h.
For `C/C=C1\NC(=O)[C@H]2CSSCC/C=C/[C@H](CC(=O)N[C@H](C(C)C)C(=O)N2)OC(=O)[C@H](C(C)C)NC1=O` [Romidepsin] (top concentration 1000 nM), the “selective drug sensitivity score” value was 1.16. With `CN(C)CCOc1ccc(/C(=C(/CCCl)c2ccccc2)c2ccccc2)cc1` [Toremifene] (top concentration 10000 nM) the “selective drug sensitivity score” value was 3.48. For `CCCCc1nc2cc(/C=C/C(=O)NO)ccc2n1CCN(CC)CC` [Pracinostat] (top concentration 10000 nM), the “selective drug sensitivity score” value was 10.1. `Cn1ncc(Cl)c1-c1cc(C(=O)N[C@H](CN)Cc2cccc(F)c2)sc1Cl` [Afuresertib] (top concentration 1000 nM) was tested, and the “selective drug sensitivity score” value was 7.76. `Cc1cc(-c2nc(-c3ccc(OC(F)(F)F)cc3)no2)nn1Cc1ccnc(N2CCN(C3CC3)CC2)c1` [BAY_87-2243] (top concentration 1000 nM) was tested, and the “selective drug sensitivity score” value was 2.54. `CNc1nc(-c2ccc3c(N)n[nH]c3c2)cc(N2C[C@@H](C(=O)NC3CCCCC3)CC[C@H]2C)n1` (top concentration 10000 nM) was tested, and the “selective drug sensitivity score” value was 2.96. `CN1CC[C@H](c2c(O)cc(O)c3c(=O)cc(-c4ccccc4Cl)oc23)[C@H](O)C1` [Alvocidib] (top concentration 10000 nM) was tested, and the “selective drug sensitivity score” value was -2.7. With `Cc1cc2c(C(C)C)c(O)c(O)c(C=O)c2c(O)c1-c1c(C)cc2c(C(C)C)c(O)c(O)c(C=O)c2c1O` [AT-101] (top concentration 100000 nM) the “selective drug sensitivity score” value was 4.48. In the case of `Cc1ccc(C(=O)Nc2cccc(C(F)(F)F)c2)cc1Nc1nc(-c2cccnc2)nc2c1cnn2C` [NVP-BHG712] (top concentration 10000 nM), the “selective drug sensitivity score” value is reported as 3.68.

Reference: the supplement of paper PMC8967900
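Note: ALL cell lines in 384-well plates, five doses spanning 10,000-fold, each plate scaled between vehicle and 100 µmol/L benzalkonium chloride controls, sDSS an adapted area-under-curve metric.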
